The target of experiment [1] is T1, human SERT (Homo sapiens, UniProt P31645).
T1 construct: expressed in transfected cells; host or cells: HEK293 membranes
Description: Human SERT (3H-citalopram binding, HEK293 membranes). The following applies: HEK293 membranes expressing the human SERT, rt 1 h. The procedure:
Homogenized HEK293 (Human Embryonic Kidney) membranes expressing the human SERT were incubated with ^3H-citalopram (SERT) at rt for 1 h in 50 mM Tris, 120 mM NaCl, 5 mM KCl (pH 7.4). Nonspecific binding was determined in the presence of 10 μM fluoxetine for the SERT. The membranes were washed and the radioactivity was counted as above.

Experiment [2] deals with Rat SERT (Rattus norvegicus, UniProt P31652). Description: biochemical.
Chain of Rat SERT (P31652 whole entry): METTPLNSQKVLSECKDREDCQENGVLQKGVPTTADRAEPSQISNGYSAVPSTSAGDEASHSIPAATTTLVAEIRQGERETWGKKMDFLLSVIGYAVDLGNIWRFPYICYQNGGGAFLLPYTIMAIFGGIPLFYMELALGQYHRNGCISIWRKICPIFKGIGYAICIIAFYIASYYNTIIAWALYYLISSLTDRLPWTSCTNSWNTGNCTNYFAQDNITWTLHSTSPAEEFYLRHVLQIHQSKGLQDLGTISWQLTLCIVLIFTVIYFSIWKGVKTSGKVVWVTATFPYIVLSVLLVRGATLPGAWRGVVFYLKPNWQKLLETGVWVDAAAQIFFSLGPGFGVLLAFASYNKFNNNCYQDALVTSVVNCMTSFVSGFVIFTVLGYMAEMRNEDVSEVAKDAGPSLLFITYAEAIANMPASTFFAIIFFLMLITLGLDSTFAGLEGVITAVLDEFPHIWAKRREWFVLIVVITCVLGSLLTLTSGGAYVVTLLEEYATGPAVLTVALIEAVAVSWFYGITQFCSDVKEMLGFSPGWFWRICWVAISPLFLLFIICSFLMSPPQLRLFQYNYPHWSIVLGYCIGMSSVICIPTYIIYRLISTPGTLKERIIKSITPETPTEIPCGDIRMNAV
Description: The supernatant was removed and re-centrifuged at 15,000 rpm for 30 min. […] Membranes were incubated with 0.6 nM [^3H]-Citalopram plus/minus test compounds for 60 min at 25° C. and harvested by rapid filtration over GF/C glass fiber filters (pretreated with 0.3% polyethylenimine) followed by four washes with ice-cold buffer. Nonspecific binding was defined in the presence of 100 μM fluoxetine.
Experiment [3] deals with cloned human H3 receptor (Homo sapiens, UniProt Q9Y5N1). Description: H3 Receptor Binding. The following applies: cloned human H3 receptor stably expressed in SK-N-MC cells.
Chain of cloned human H3 receptor (Q9Y5N1 whole entry): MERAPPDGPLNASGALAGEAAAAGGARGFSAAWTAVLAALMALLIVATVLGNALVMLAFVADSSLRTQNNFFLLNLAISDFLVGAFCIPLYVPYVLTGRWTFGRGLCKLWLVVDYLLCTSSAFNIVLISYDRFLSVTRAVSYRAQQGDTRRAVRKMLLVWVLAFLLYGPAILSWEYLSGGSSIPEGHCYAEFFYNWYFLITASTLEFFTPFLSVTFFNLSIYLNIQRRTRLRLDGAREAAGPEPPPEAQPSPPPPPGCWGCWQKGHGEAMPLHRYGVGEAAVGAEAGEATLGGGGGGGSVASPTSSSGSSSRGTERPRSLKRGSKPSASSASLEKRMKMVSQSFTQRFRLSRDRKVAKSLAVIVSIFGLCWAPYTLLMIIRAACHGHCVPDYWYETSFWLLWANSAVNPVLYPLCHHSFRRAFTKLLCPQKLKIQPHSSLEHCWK
Experiment [4] has as its target human H3 receptor (Homo sapiens, UniProt Q9Y5N1). Description: Cyclic AMP Accumulation (reporter gene, SK-N-MC cells).
Description: Sublines of SK-N-MC cells were created that expressed a reporter construct and the human H3 receptor. The reporter gene (β-galactosidase) is under the control of multiple cyclic AMP responsive elements. In 96-well plates, histamine was added directly to the cell media followed 5 min later by an addition of forskolin (5 μM final concentration). When appropriate, antagonists were added 10 min prior to agonist addition. After a 6-h incubation at 37° C., the media was aspirated and the cells washed with 200 μL of phosphate-buffered saline followed by a second aspiration. […] Color was developed using 25 μL of 1 mg/mL substrate solution (chlorophenolred β-D galactopyranoside; Roche Molecular Biochemicals, Indianapolis, Ind.).

For orientation: Ki means the dissociation constant of the complex between target and ligand, obtained from inhibition or displacement. Read a low Ki as a stronger hold on the target.

Chain of human H3 receptor (Q9Y5N1 whole entry): as above
T1 sequence (P31645 whole entry): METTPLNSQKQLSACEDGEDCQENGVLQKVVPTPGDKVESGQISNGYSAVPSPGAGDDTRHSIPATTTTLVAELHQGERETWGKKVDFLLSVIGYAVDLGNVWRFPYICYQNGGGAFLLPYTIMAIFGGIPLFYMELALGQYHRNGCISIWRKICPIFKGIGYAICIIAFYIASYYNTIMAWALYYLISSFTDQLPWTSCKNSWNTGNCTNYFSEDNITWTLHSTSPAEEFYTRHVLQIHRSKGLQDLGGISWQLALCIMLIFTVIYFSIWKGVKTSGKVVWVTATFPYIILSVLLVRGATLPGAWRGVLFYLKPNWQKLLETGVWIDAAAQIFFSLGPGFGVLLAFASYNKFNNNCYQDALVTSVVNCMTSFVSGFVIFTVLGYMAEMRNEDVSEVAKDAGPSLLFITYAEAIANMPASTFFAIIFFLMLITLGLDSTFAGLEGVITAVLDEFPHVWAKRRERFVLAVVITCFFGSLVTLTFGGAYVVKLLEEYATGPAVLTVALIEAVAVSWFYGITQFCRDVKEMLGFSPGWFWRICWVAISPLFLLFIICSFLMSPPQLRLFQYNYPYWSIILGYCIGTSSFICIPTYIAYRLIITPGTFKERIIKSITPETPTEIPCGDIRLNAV

For `CNCc1cc(N2CCN(C(C)C)CCC2=O)ccc1Oc1ccc(Cl)c(Cl)c1` [Example 73, 4-[4-(3,4-Dichloro-phenoxy)-3-methylaminomethyl-phenyl]-1-isopropyl-[1,4]diazepan-5-one], the Ki in experiment [1] was found to be 16 nM; in experiment [2], 12 nM; in experiment [3], 7.7 nM. The Kb in experiment [4] is 4.47 nM.
On to `CNCc1cc(N2CCN(C(C)C)CCC2=O)ccc1Oc1ccc(SC)cc1` [Example 54, 1-Isopropyl-4-[3-methylaminomethyl-4-(4-methylsulfanyl-phenoxy)-phenyl]-[1,4]diazepan-5-one], for which the results for the Ki in experiment [2] and in experiment [3] were 0.5 nM and 3 nM, respectively. Moreover, the Kb in experiment [4] was 2 nM.
For `CC(C)N1CCN(C(=O)c2ccc(CNC3CC3)c(Oc3cccnc3)c2)CC1` [Example 30, [4-Cyclopropylaminomethyl-3-(pyridin-3-yloxy)-phenyl]-(4-isopropyl-piperazin-1-yl)-methanone], the figures for the Ki in experiment [2] and in experiment [3] were 4000 nM and 3 nM, respectively. In experiment [4], this molecule had a Kb of 0.794 nM.
For `CNCc1cc(C(=O)N2CCN(C(C)C)CC2)ccc1Oc1cccnc1` [Example 9, (4-Isopropyl-piperazin-1-yl)-[3-methylaminomethyl-4-(pyridin-3-yloxy)-phenyl]-methanone], the Ki was 420 nM in experiment [1], 160 nM in experiment [2] and 1 nM in experiment [3].
On to `O=C(c1ccc(CN2CCCCC2)c(Oc2cccnc2)c1)N1CCN(C2CC2)CC1` [Example 34, (4-Cyclopropyl-piperazin-1-yl)-[4-piperidin-1-ylmethyl-3-(pyridin-3-yloxy)-phenyl]-methanone], for which, in experiment [3], the affinity, expressed as Ki, was 3 nM. The Kb in experiment [4] is 1.26 nM.
Consider `O=C(c1ccc(CNC2CC2)c(Oc2cccnc2)c1)N1CCN(C2CC2)CC1` [Example 31, [4-Cyclopropylaminomethyl-3-(pyridin-3-yloxy)-phenyl]-(4-cyclopropyl-piperazin-1-yl)-methanone], for which the Ki in experiment [2] stood at 1000 nM; in experiment [3], 10 nM. For the same molecule, the Kb in experiment [4] is 1.58 nM.
Taken in the same sequence, the figures for `CNCc1ccc(C(=O)N2CCN(C(C)C)CC2)cc1Oc1ccc(Cl)cc1` [Example 36, [3-(4-Chloro-phenoxy)-4-methylaminomethyl-phenyl]-(4-isopropyl-piperazin-1-yl)-methanone] were 28 nM, 4 nM and 6.31 nM.

The values above are taken from patent US7479493B2, “Substituted benzyl amine compounds” (Janssen Pharmaceutica N.V., priority 2006, dated 2009).
